Reference: US9988381B2, “Five-member-heterocycle fused pyridine compounds, method of producing the same, and use thereof” (SHANGHAI INSTITUTE OF MATERIA MEDICA, CHINESE ACADEMY OF …, priority 2013, dated 2018)
Where two headings read alike, the source gives them in different places.

How the values were obtained:
[1] = target: T1, c-Met kinase domain recombinant protein (Homo sapiens, UniProt P08581); test: biochemical; details: for inhibition at 0.1 µM: read-out: Average inhibition rate at 0.1 μM (%); for inhibition at 1 µM: read-out: Average inhibition rate at 1 μM (%); for inhibition at 10 µM: read-out: Average inhibition rate at 10 μM (%)
T1 construct: 50 μL diluted solution of c-Met kinase domain recombinant protein in reaction buffer was added to initiate the reaction
Method in brief: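 ELISA on plates coated with Poly(Glu,Tyr)4:1 (20 μg/mL coating solution). Recombinant c-Met kinase domain reacted with 5 μM ATP in HEPES pH 7.4 with Mg/Mn, vanadate and DTT for 1 hour at 37° C. Phosphotyrosine was detected with PY99 and HRP secondary antibody, read at 490 nm, and IC50 was taken from a four-parameter fit.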

[2] = target: T1, c-Met kinase domain recombinant protein; test: biochemical; details: for inhibition at 10 µM: read-out: Inhibition rate at 10 μM (%)
Method in brief: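 ELISA on plates coated with Poly(Glu,Tyr)4:1 (20 μg/mL), kinase reaction with c-Met kinase domain and ATP in HEPES pH 7.4 buffer with MgCl2, MnCl2, Na3VO4 and DTT, 1 h at 37 °C. Phosphotyrosine detected with PY99 and HRP secondary antibody, read at 490 nm; inhibition rate calculated against ATP-free control.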

[3] = test system: BaF3/TPR-Met cell; test: Test III: growth inhibition of engineered BaF3/TPR-Met cells (MTT); format: cell-based; details: for inhibition at 0.2 µM / inhibition at 1 µM: Mus musculus; for inhibition at 0.2 µM: read-out: Cell proliferation inhibition rate at 200 nM (%); for inhibition at 1 µM: read-out: Cell proliferation inhibition rate at 1 μM (%)
Procedure: Assays on the growth inhibition of the compounds against engineered BaF3/TPR-Met cell (engineered cell line having TPR-Met fusion protein stably expressed in cytoplasm, persistently activated, Met dependent sensitive cell line; BaF3 cell was purchased from DSMZ, German) were detected using microculture tetrozolium (MTT) staining. A certain amount of BaF3/TPR-Met cells at log phase were inoculated into 96-well culture plate at 90 µL per well, incubated overnight and then 10 μL compound at various concentrations or vehicle control (normal saline) was added, each concentration was tested in triplicate. After incubation with compound for 72 hours, the incubation was terminated, MTT solution (5 mg/mL) was added at 20 μL per well, incubated at 37° C. for 4 hours, then 100 μL triplet solution (10% SDS−5% isobutanol−0.01M HCl) was added, incubated overnight at 37° C., OD value was measured at 570 nm. […] Experiments were conducted in duplicates.

T1 sequence (P08581 1078-1345 limits assumed): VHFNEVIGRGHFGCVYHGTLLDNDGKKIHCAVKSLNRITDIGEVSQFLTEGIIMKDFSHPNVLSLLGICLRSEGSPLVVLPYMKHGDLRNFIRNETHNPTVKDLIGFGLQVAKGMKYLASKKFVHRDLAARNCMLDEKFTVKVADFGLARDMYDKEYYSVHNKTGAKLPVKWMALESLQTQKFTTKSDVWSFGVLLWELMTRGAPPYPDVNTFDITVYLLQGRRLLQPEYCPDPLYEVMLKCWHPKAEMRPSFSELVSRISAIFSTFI

| SMILES | IC50 [1] | inhibition at 0.1 µM [1] | inhibition at 1 µM [1] | inhibition at 10 µM [1] | inhibition at 10 µM [2] | inhibition at 0.2 µM ([3]; BaF3, 72 h) | inhibition at 1 µM ([3]; BaF3, 72 h) | inhibition at 0.2 µM ([3]; BaF3/TPR-Met, 200 nM, 72 hours) | inhibition at 1 µM ([3]; BaF3/TPR-Met, 1 μM, 72 hours) | Average inhibition rate at 0.1 μM (%) ([1]; compound 0.1 μM) | Average inhibition rate at 1 μM (%) ([1]; compound 1 μM) | Average inhibition rate at 10 μM (%) ([1]; compound 10 μM, Table 2) | Inhibition rate at 10 μM (%) ([2]; compound 10 μM, Table 1) | Cell proliferation inhibition rate at 1 μM (%) ([3]; BaF3/TPR-Met, 1 μM, 72 hours) |
| --- | --- | --- | --- | --- | --- | --- | --- | --- | --- | --- | --- | --- | --- | --- |
| O=S(=O)(c1cnc2ccccn12)n1ncc2ncc(-c3cnn(C4CCNCC4)c3)cc21 [Example 45, 1-(imidazo[1,2-a]pyridine-3-sulfonyl)-6-{[1-(4-piperidinyl)]-4-pyrazolyl}-1-H-pyrazolo[4,3-b]pyridine] | 2.9 ± 0.6 nM | 73.4% | 76.5% | 89.6% | 89.6% | 27.9% | 95.9% | – | – | – | – | – | – | – |
| CC(C)(C)OC(=O)N1CCC(n2cc(-c3cnc4cnn(S(=O)(=O)c5cnn6cccnc56)c4c3)cn2)CC1 [Example 46, 1-(pyrazolo[1,5-a]pyrimidine-3-sulfonyl)-6-{{1-[(1-t-butoxycarbonyl)-4-piperidinyl]}-4-pyrazolyl}-1-H-pyrazolo[4,3-b]pyridine] | – | 55.9% | 65% | 81.3% | 81.3% | – | – | 33.7% | 68% | – | – | – | – | – |
| CC(C)(C)OC(=O)N1CCC(n2cc(-c3cnc4cnn(S(=O)(=O)c5cnc6cccnn56)c4c3)cn2)CC1 [Example 49, 1-(imidazo[1,2-b]pyridazine-3-sulfonyl)-6-{{1-[(1-t-butoxycarbonyl)-4-piperidinyl]}-4-pyrazolyl}-1-H-pyrazolo[4,3-b]pyridine] | – | 71% | 74.5% | 76.7% | 76.7% | – | – | 28.4% | 90.5% | – | – | – | – | – |
| O=S(=O)(c1cnc2cccnn12)n1ncc2ncc(-c3cnn(C4CCNCC4)c3)cc21 [Example 51] | – | 64.6% | 66.7% | 72.3% | 72.3% | – | – | 15.3% | 7.7% | – | – | – | – | – |
| CCN1CCC(n2cc(-c3cnc4cnn(S(=O)(=O)c5cnc6ccccn56)c4c3)cn2)CC1 [Example 53, 1-(imidazo[1,2-a]pyridine-3-sulfonyl)-6-{{1-[(1-ethyl)-4-piperidinyl]}-4-pyrazolyl}-1-H-pyrazolo[4,3-b]pyridine] | – | 67.5% | 68.4% | 74.1% | 65.7% | – | – | – | 90.9% | – | – | – | – | – |
| CC(=O)N1CCC(n2cc(-c3cnc4cnn(S(=O)(=O)c5cnc6ccccn56)c4c3)cn2)CC1 [Example 54, 1-(imidazo[1,2-a]pyridine-3-sulfonyl)-6-{{1-[(1-acetyl)-4-piperidinyl]}-4-pyrazolyl}-1-H-pyrazolo[4,3-b]pyridine] | – | 55.9% | 57.9% | 62.1% | 70.7% | – | – | 88.3% | 89.6% | – | – | – | – | – |
| O=C(C1CC1)N1CCC(n2cc(-c3cnc4cnn(S(=O)(=O)c5cnc6ccccn56)c4c3)cn2)CC1 [Example 55, 1-(imidazo[1,2-a]pyridine-3-sulfonyl)-6-{{1-[(1-cyclopropylcarbonyl)-4-piperidinyl]}-4-pyrazolyl}-1-H-pyrazolo[4,3-b]pyridine] | 1.3 ± 0.1 nM | 58.8% | 58.3% | 60.8% | 74.1% | 89.3% | 89.8% | – | – | – | – | – | – | – |
| O=C(C1CCCC1)N1CCC(n2cc(-c3cnc4cnn(S(=O)(=O)c5cnc6ccccn56)c4c3)cn2)CC1 [Example 56, 1-(imidazo[1,2-a]pyridine-3-sulfonyl)-6-{{1-[(1-cyclopentylcarbonyl)-4-piperidinyl]}-4-pyrazolyl}-1-H-pyrazolo[4,3-b]pyridine] | – | 53.3% | 56.3% | 58.9% | 62.1% | – | – | 79.1% | 90.6% | – | – | – | – | – |
| O=C(C1CCCCC1)N1CCC(n2cc(-c3cnc4cnn(S(=O)(=O)c5cnc6ccccn56)c4c3)cn2)CC1 [Example 57, 1-(imidazo[1,2-a]pyridine-3-sulfonyl)-6-{{1-[(1-cyclohexylcarbonyl)-4-piperidinyl]}-4-pyrazolyl}-1-H-pyrazolo[4,3-b]pyridine] | – | 52.4% | 54.5% | 60.3% | 60.8% | – | – | 86.8% | 89.5% | – | – | – | – | – |
| CC(C)N1CCC(n2cc(-c3cnc4cnn(S(=O)(=O)c5cnc6ccccn56)c4c3)cn2)CC1 [Example 59, 1-(imidazo[1,2-a]pyridine-3-sulfonyl)-6-{{1-[(1-isopropyl)-4-piperidinyl]}-4-pyrazolyl}-1-H-pyrazolo[4,3-b]pyridine] | – | 51.6% | 51.9% | 59.8% | 60.3% | – | – | 70.6% | 89.8% | – | – | – | – | – |
| O=S(=O)(c1cnc2ccccn12)n1ncc2ncc(-c3cnn(C4CCN(C5CCCC5)CC4)c3)cc21 [Example 60, 1-(imidazo[1,2-a]pyridine-3-sulfonyl)-6-{{1-[(1-cyclopentyl)-4-piperidinyl]}-4-pyrazolyl}-1-H-pyrazolo[4,3-b]pyridine] | – | 50.1% | 53.4% | 62.6% | 57.4% | – | – | 84.8% | 89.4% | – | – | – | – | – |
| CC(C)(C)OC(=O)N1CCC(n2cc(-c3cnc4cnn(S(=O)(=O)c5cnc6ccc(Cl)nn56)c4c3)cn2)CC1 [Example 61] | – | 73.7% | 76% | 83.2% | 59.8% | – | – | 83.1% | 91.7% | – | – | – | – | – |
| CC(C)(C)OC(=O)N1CCC(n2cc(-c3cnc4cnn(S(=O)(=O)c5cnc6ccc(C(F)(F)F)cn56)c4c3)cn2)CC1 [Example 63] | – | 59% | 60.4% | 63% | 83.2% | – | – | – | 66.5% | – | – | – | – | – |
| Cl.O=S(=O)(c1cnc2ccccn12)n1ncc2ncc(-c3cnn(C4CCNCC4)c3)cc21 [Example 66, 1-(imidazo[1,2-a]pyridine-3-sulfonyl)-6-{[1-(4-piperidinyl)]-4-pyrazolyl}-1-H-pyrazolo[4,3-b]pyridine chloride] | – | – | – | – | – | – | – | – | – | 73.3% | 75.8% | 79.9% | 63% | 92.7% |
| CC(C)(C)OC(=O)N1CCC(n2cc(-c3cnc4cnn(S(=O)(=O)c5cnc6ccc(Cl)cn56)c4c3)cn2)CC1 [Example 67] | – | 63.1% | 64.6% | 68.2% | 66% | – | – | 90.3% | 91.6% | – | – | – | – | – |
